Measurements: patent EP0013144A1, “Substituted diphenylamine derivatives, compositions and herbicidal uses thereof, and processes for their preparation” (ICI AUSTRALIA LIMITED, priority 1978, dated 1980)

Assays:
Assay type in all cases: in vivo
Wheat [1] = experiment: Post-emergence herbicidal activity (Example 32); design: key: 0-3 scale: 0 = 0-25% damage, 3 = 75-99% kill, 3+ = 100% kill; conditions: 3 weeks after spraying
Method: (§1) Concentrated formulations of the compounds of the invention were prepared by: • a) in the case of oils and waxy solids, dissolving the compound in toluene containing 7% v/v "Teric" N13 ("Teric" is a Trade MarK and "Teric" N13, a product of ethoxylation of nonylphenol, is available from ICI Australia Limited) and 3% v/v "Kemmat" SC15B ("Kemmat" is a Trade Mark and "Kemmat" SC15B is a formulation of calcium dodecylbenzene sulfonate); or • b) in the case of crystalline solids, adding 5 parts by weight of the compound and 1 part by weight of . ''Dyapol" PT ("Dyapol" is a Trade Mark and "Dyapol" PT is an anionic suspending agent) to 94 parts by weight of an aqueous solution containing 0.25% v/v of "Teric" N8 (a product of ethoxylation of nonylphenol) and ball-milling the mixture to produce a stable suspension. The emulsifiable concentrates and suspensions were then diluted with water to give an aqueous composition of the required concentration suitable for use in the evaluation of the pre-emergence and post-emergence herbicidal activity of the compounds of the invention.
(§2) The post-emergent herbicidal activity of the compounds of the invention formulated as described in Example 30 was assessed by the following procedure.
(§3) The seeds of the test species were sown in rows 2 cm deep in soil contained in seed boxes. The monocotyledonous plants and the dicotyledonous plants were sown in separate seed boxes in duplicate. The four seed boxes were placed in a glasshouse, lightly watered with an overhead spray to initiate germination and then sub-irrigated as required for optimum plant growth. After the plants had grown to a height of about 10 to 12.5 cm one box of each of the monocotyledonous plants and the dicotyledonous plants was removed from the glasshouse and sprayed with the required quantity of a composition of the invention. After spraying the boxes were returned to the glasshouse for further 3 weeks and the effects of the treatment was visually assessed by comparison with the untreated controls. The results are presented in Table 4 where the damage to plants is rated on a scale of from 0 to 3 where 0 represents 0 to 25% damage, 3 represents 75 to 99% kill and 3+ represents 100% kill. A dash (-) means that no experiment was carried out.

Ipomea [2] = experiment: Post-emergence herbicidal activity (Example 32); conditions: 3 weeks after spraying
Method: as §1, §2, §3

Japanese millet [3] = experiment: Post-emergence herbicidal activity (Example 32); conditions: 3 weeks after spraying
Method: as §1, §2, §3

Mustard [4] = experiment: Post-emergence herbicidal activity (Example 32); conditions: 3 weeks after spraying
Method: as §1, §2, §3

Ryegrass [5] = experiment: Post-emergence herbicidal activity (Example 32); conditions: 3 weeks after spraying
Method: as §1, §2, §3

Sunflower [6] = experiment: Post-emergence herbicidal activity (Example 32); conditions: 3 weeks after spraying
Method: as §1, §2, §3

Wild Oats [7] = experiment: Post-emergence herbicidal activity (Example 32); conditions: 3 weeks after spraying
Method: as §1, §2, §3

Ryegrass [8] = experiment: Pre-emergence herbicidal activity (Example 31); design: key: 0-3 scale: 0 = 0-25% damage, 3 = 75-99% kill, 3+ = 100% kill; conditions: after three weeks
Method: as §1
(§4) The pre-emergent herbicidal activity of the compounds of the invention formulated as described in Example 30 was assessed by the following procedure.
(§5) The seeds of the test species were sown in rows 2 cm deep in soil contained in seed boxes. The monocotyledonous plants and the dicotyledonous plants were sprayed with the required quantity of a composition of the invention. Two duplicate seed Doxes were prepared in the same manner but were not sprayed with a composition of the invention and were used for comparison purposes. All the boxes were placed in a glasshouse, lightly watered with an overhead spray to initiate germination and then sub-irrigated as required for optimum plant growth. After three weeks the boxes were removed from the glasshouse and the effect of the treatment was visually assessed. The results are presented in Table 3 where the damage to plants is rated on a scale of from 0 to 3 where 0 represents from 0 to 25% damage, 3 represents 75 to 99% kill and 3+ represents 100% kill.
(§6) A dash (-) means that no experiment was carried out.

Wheat [9] = experiment: Pre-emergence herbicidal activity (Example 31); design: key: 0-3 scale: 0 = 0-25% damage, 3 = 75-99% kill, 3+ = 100% kill; conditions: after three weeks
Method: as §1, §4, §5, §6

Ipomea [10] = experiment: Pre-emergence herbicidal activity (Example 31); conditions: after three weeks
Method: as §1, §4, §5, §6

Japanese millet [11] = experiment: Pre-emergence herbicidal activity (Example 31); conditions: after three weeks
Method: as §1, §4, §5, §6

Mustard [12] = experiment: Pre-emergence herbicidal activity (Example 31); conditions: after three weeks
Method: as §1, §4, §5, §6

Sunflower [13] = experiment: Pre-emergence herbicidal activity (Example 31); conditions: after three weeks
Method: as §1, §4, §5, §6

Wild Oats [14] = experiment: Pre-emergence herbicidal activity (Example 31); conditions: 5 kg/ha, after three weeks
Method: as §1, §4, §5, §6

SMILES	damage to plants, Wh (Wheat [1]; 5 kg/ha)	damage to plants, Ip (Ipomea [2]; 5 kg/ha)	damage to plants, Jm (Japanese millet [3]; 5 kg/ha)	damage to plants, Ms (Mustard [4]; 5 kg/ha)	damage to plants, Rg (Ryegrass [5]; 5 kg/ha)	damage to plants, Sf (Sunflower [6]; 5 kg/ha)	damage to plants, Ot (Wild Oats [7]; 5 kg/ha)	damage to plants, Rg (Ryegrass [8]; 5 kg/ha)	damage to plants, Wh (Wheat [9]; 5 kg/ha)	damage to plants, Ip (Ipomea [10]; 5 kg/ha)	damage to plants, Jm (Japanese millet [11]; 5 kg/ha)	damage to plants, Ms (Mustard [12]; 5 kg/ha)	damage to plants, Sf (Sunflower [13]; 5 kg/ha)	damage to plants, Wh (Wheat [1]; 1 kg/ha)	damage to plants, Jm (Japanese millet [3]; 1 kg/ha)	damage to plants, Ms (Mustard [4]; 1 kg/ha)	damage to plants, Rg (Ryegrass [5]; 1 kg/ha)	damage to plants, Ot (Wild Oats [7]; 1 kg/ha)	damage to plants, Rg (Ryegrass [8]; 1 kg/ha)	damage to plants, Wh (Wheat [9]; 1 kg/ha)	other results
COC(=O)C(C)Oc1ccc(N(C)c2ccc(C(F)(F)F)cc2)cc1 (stereo not shown) [Compound 14, Methyl 2-[4-(4-trifluoromethyl-N-methylanilino)phenoxy]-propionate]	0 (0 represents 0 to 25% damage)	3+ (3+ represents 100% kill)	3 (3 represents 75 to 99% kill)	3+ (3+ represents 100% kill)	0 (0 represents 0 to 25% damage)	2	0 (0 represents 0 to 25% damage)														
COC(=O)C(C)Oc1ccc(Nc2ccc(Cl)cc2Cl)cc1 (stereo not shown) [Compound 22]	3 (3 represents 75 to 99% kill)		3+ (3+ represents 100% kill)	3+ (3+ represents 100% kill)	3+ (3+ represents 100% kill)		3+ (3+ represents 100% kill)	2	0 (0 represents from 0 to 25% damage)	0 (0 represents from 0 to 25% damage)	2	0 (0 represents from 0 to 25% damage)	0 (0 represents from 0 to 25% damage)	1	3+ (3+ represents 100% kill)	1	3+ (3+ represents 100% kill)	2			damage to plants, Ot (Wild Oats [14]): 0 (0 represents from 0 to 25% damage)
COC(=O)C(C)Oc1ccc(Nc2ccccc2[N+](=O)[O-])cc1 (stereo not shown) [Compound 25]																					damage to plants, Rg (Ryegrass [8]; 10 kg/ha): 3+ (3+ represents 100% kill); damage to plants, Wh (Wheat [9]; 10 kg/ha): 1; damage to plants, Ip (Ipomea [10]; 10 kg/ha): 0 (0 represents from 0 to 25% damage); damage to plants, Jm (Japanese millet [11]; 10 kg/ha): 3 (3 represents 75 to 99% kill); damage to plants, Ms (Mustard [12]; 10 kg/ha): 0 (0 represents from 0 to 25% damage); damage to plants, Sf (Sunflower [13]; 10 kg/ha): 0 (0 represents from 0 to 25% damage); damage to plants, Wh (Wheat [1]; 10 kg/ha): 3 (3 represents 75 to 99% kill); damage to plants, Ip (Ipomea [2]; 10 kg/ha): 0 (0 represents 0 to 25% damage); damage to plants, Jm (Japanese millet [3]; 10 kg/ha): 3+ (3+ represents 100% kill); damage to plants, Ms (Mustard [4]; 10 kg/ha): 0 (0 represents 0 to 25% damage); damage to plants, Rg (Ryegrass [5]; 10 kg/ha): 3+ (3+ represents 100% kill); damage to plants, Sf (Sunflower [6]; 10 kg/ha): 0 (0 represents 0 to 25% damage); damage to plants, Ot (Wild Oats [7]; 10 kg/ha): 3 (3 represents 75 to 99% kill)
COC(=O)C(C)Oc1ccc(Nc2ccc(C)cc2[N+](=O)[O-])cc1 (stereo not shown) [Compound 26]	3 (3 represents 75 to 99% kill)	0 (0 represents 0 to 25% damage)	3+ (3+ represents 100% kill)	0 (0 represents 0 to 25% damage)	3 (3 represents 75 to 99% kill)	0 (0 represents 0 to 25% damage)	1	3+ (3+ represents 100% kill)	1	0 (0 represents from 0 to 25% damage)		0 (0 represents from 0 to 25% damage)	0 (0 represents from 0 to 25% damage)	2	3 (3 represents 75 to 99% kill)	0 (0 represents 0 to 25% damage)	3 (3 represents 75 to 99% kill)	1	2	0 (0 represents from 0 to 25% damage)	damage to plants, Ip (Ipomea [10]; 1 kg/ha): 0 (0 represents from 0 to 25% damage); damage to plants, Ms (Mustard [12]; 1 kg/ha): 0 (0 represents from 0 to 25% damage); damage to plants, Sf (Sunflower [13]; 1 kg/ha): 0 (0 represents from 0 to 25% damage); damage to plants, Ip (Ipomea [2]; 1 kg/ha): 0 (0 represents 0 to 25% damage); damage to plants, Sf (Sunflower [6]; 1 kg/ha): 0 (0 represents 0 to 25% damage)
COC(=O)C(C)Oc1ccc(Nc2ccc(Br)cc2N)cc1 (stereo not shown) [Compound 32, Methyl 2-[4-(2-amino-4-bromoanilino)phenoxy] propionate]								2	1	0 (0 represents from 0 to 25% damage)	3 (3 represents 75 to 99% kill)	0 (0 represents from 0 to 25% damage)	0 (0 represents from 0 to 25% damage)								damage to plants, Ot (Wild Oats [14]): 0 (0 represents from 0 to 25% damage)
CC(Oc1ccc(Nc2ccc(Cl)cc2[N+](=O)[O-])cc1)C(=O)OC1CCCCC1 (stereo not shown) [Compound 79]	3 (3 represents 75 to 99% kill)	0 (0 represents 0 to 25% damage)	3+ (3+ represents 100% kill)	0 (0 represents 0 to 25% damage)	3 (3 represents 75 to 99% kill)	0 (0 represents 0 to 25% damage)	3 (3 represents 75 to 99% kill)	3 (3 represents 75 to 99% kill)	0 (0 represents from 0 to 25% damage)	0 (0 represents from 0 to 25% damage)	3+ (3+ represents 100% kill)	0 (0 represents from 0 to 25% damage)	0 (0 represents from 0 to 25% damage)	2	3+ (3+ represents 100% kill)	0 (0 represents 0 to 25% damage)	3+ (3+ represents 100% kill)	3 (3 represents 75 to 99% kill)	3 (3 represents 75 to 99% kill)	0 (0 represents from 0 to 25% damage)	damage to plants, Ip (Ipomea [10]; 1 kg/ha): 0 (0 represents from 0 to 25% damage); damage to plants, Jm (Japanese millet [11]; 1 kg/ha): 3 (3 represents 75 to 99% kill); damage to plants, Ms (Mustard [12]; 1 kg/ha): 0 (0 represents from 0 to 25% damage); damage to plants, Sf (Sunflower [13]; 1 kg/ha): 0 (0 represents from 0 to 25% damage); damage to plants, Ip (Ipomea [2]; 1 kg/ha): 0 (0 represents 0 to 25% damage); damage to plants, Sf (Sunflower [6]; 1 kg/ha): 0 (0 represents 0 to 25% damage)
CC(Oc1ccc(N(C)c2ccc(C(F)(F)F)cc2[N+](=O)[O-])cc1)C(=O)OC1CCCCC1 (stereo not shown) [Compound 80]	3 (3 represents 75 to 99% kill)	0 (0 represents 0 to 25% damage)	3+ (3+ represents 100% kill)	0 (0 represents 0 to 25% damage)	3+ (3+ represents 100% kill)	0 (0 represents 0 to 25% damage)	3+ (3+ represents 100% kill)	3+ (3+ represents 100% kill)	1	0 (0 represents from 0 to 25% damage)		0 (0 represents from 0 to 25% damage)	0 (0 represents from 0 to 25% damage)	1	3+ (3+ represents 100% kill)	0 (0 represents 0 to 25% damage)	3 (3 represents 75 to 99% kill)	3+ (3+ represents 100% kill)	3 (3 represents 75 to 99% kill)	0 (0 represents from 0 to 25% damage)	damage to plants, Ip (Ipomea [10]; 1 kg/ha): 0 (0 represents from 0 to 25% damage); damage to plants, Ms (Mustard [12]; 1 kg/ha): 0 (0 represents from 0 to 25% damage); damage to plants, Sf (Sunflower [13]; 1 kg/ha): 0 (0 represents from 0 to 25% damage); damage to plants, Ip (Ipomea [2]; 1 kg/ha): 0 (0 represents 0 to 25% damage); damage to plants, Sf (Sunflower [6]; 1 kg/ha): 0 (0 represents 0 to 25% damage)
